We go through four compounds from patent publication US9573953B2, “Heteroaromatic compounds as PI3 kinase modulators and methods of use” (CALITOR SCIENCES, LLC, priority 2013, dated 2017).

One series concerns the target T1, mTOR (h) (Homo sapiens, UniProt P42345).
T1 construct: purchased Millipore UK Ltd (assays run there as a service)
Briefly: mTOR (h) kinase assay. In kind it is biochemical. As for the experimental part:
mTOR (h) is incubated with 50 mM HEPES pH 7.5, 1 mM EDTA, 0.01% TWEEN®20, 2 mg/mL substrate, 3 mM Manganese Chloride and [γ-^33P-ATP] (specific activity approx. 500 cpm/pmol, concentration as required). The reaction is initiated by the addition of the MnATP mix. After incubation for 40 minutes at room temperature, the reaction is stopped by the addition of 3% phosphoric acid solution. Aliquote of the reaction (10 μL) is then spotted onto a P30 filtermat and washed three times for 5 minutes in 75 mM phosphoric acid and once in methanol prior to drying and scintillation counting.
(§1) The kinase assays described herein were performed at Millipore UK Ltd, Dundee Technology Park, Dundee DD2 1SW, UK.

In a further series the target is T2, PI3K (p120γ) (h) (Homo sapiens, UniProt P48736).
T2 construct: purchased Millipore UK Ltd (assays run there as a service)
Briefly: PI3K (p120γ) (h) non-radioactive (HTRF) assay. In kind it is biochemical. On the procedure: PI3K (p120γ) (h) [Non-Radioactive Assay]
PI3K (p120γ) (h) is incubated in assay buffer containing 10 μM phosphatidylinositol-4,5-bisphosphate and MgATP (concentration as required). The reaction is initiated by the addition of the MgATP mix. After incubation for 30 minutes at room temperature, the reaction is stopped by the addition of stop solution containing EDTA and biotinylated phosphatidylinositol-3,4,5-trisphosphate. Finally, detection buffer is added, which contains europium-labelled anti-GST monoclonal antibody, GST-tagged GRP1 PH domain and streptavidin-allophycocyanin. The plate is then read in time-resolved fluorescence mode and the homogenous time-resolved fluorescence (HTRF) signal is determined according to the formula HTRF=10000×(Em665 nm/Em620 nm).
as §1
For orientation: In TR-FRET formats the signal depends on donor and acceptor labels being close together.

A short description of series [1]: Pharmacokinetic profiles in rats. In kind it is in vivo. The note with it: for F: iv dose 2 mg/kg, oral dose generally 5 or 10 mg/kg; for Cl/F / AUC(0-t) / half-life / Vd: iv dosing, 2 mg/kg; for AUC(0-t) / half-life / Vd: rat, plasma; for Vd: read-out: Vss. On the procedure:
The compounds disclosed herein are assessed in pharmacokinetic studies in mice, rats, dogs or monkeys. The compounds are administered as a water solution, 2% HPMC+1% TWEEN®80 in water solution, 5% DMSO+5% solutol in saline, 4% MC suspension or capsule. For the intravenous administration, the animals are generally given at 1 or 2 mg/kg dose. For the oral (p.o.) dosing, mice and rats are generally given 5 or 10 mg/kg dose, and dogs and monkeys are generally given 10 mg/kg dose. The blood samples (0.3 mL) are drawn at 0.25, 0.5, 1.0, 2.0, 3.0, 4.0, 6.0, 8.0, 12 and 24 h time points or 0.083, 0.25, 0.5, 1.0, 2.0, 4.0, 6.0, 8.0 and 24 h time points and centrifuged at 3,000 or 4000 rpm for 2 to 10 min. The plasma solutions are collected and stored at −20° C. or −70° C. until analyzed by LC/MS/MS as described above.

The next series relates to U87MG glioblastoma cells. Nature of the series: Tumor xenograft model (U87MG), tumor growth inhibition. The conditions noted are these: oral gavage. In kind it is in vivo, mice. On the procedure: The efficacy of compounds disclosed herein was evaluated in a standard murine model of tumorigenesis. Human tumor cells (U87MG glioblastoma cells from ATCC) were expended in culture, harvested, and injected subcutaneously onto the rear flank of 6-7 week old female athymic nude mice (BALB/cA nu/nu, Hunan SLAC Laboratory Animal, Co.) (n=6-10 for vehicle group and for each dosing group). When tumors reached a volume of 100-250 mm^3, animals were randomly divided into vehicle control (for example, 5% DMSO+70% CAPTISOL® (30%), 7% HCl (pH1), 18% CAPTISOL® (30%); or 7% DMSO, 7% HCl (pH1), 70% CAPTISOL® (30%), 16% CAPTISOL® (30%), or the like) and compound groups. Subsequent administration of compound by oral gavage begins anywhere from day 0 to day 15 post tumor cell challenge and generally continues with once a day for the duration of the experiment.
Progression of tumor growth is assessed by tumor volumes and recorded as a function of time. The long (L) and short (W) axes of the subcutaneous tumors were measured with calipers twice weekly, and the tumor volume (TV) calculated as (L×W^2)/2). TGI was calculated from the difference between the median tumor volumes of vehicle-treated and drug-treated mice, expressed as a percentage of the median tumor volume of the vehicle-treated control group, by the following relation:
Initial statistical analysis is done by repeated measures analysis of variance (RMANOVA), followed by Scheffe post hoc testing for multiple comparisons. Vehicle alone (5% DMSO+70% CAPTISOL® (30%), 7% HCl (pH1), 18% CAPTISOL® (30%); or 7% DMSO, 7% HCl (pH1), 70% CAPTISOL® (30%), 16% CAPTISOL® (30%), or the like) is the negative control.

A short description of series [2]: Compound stability in rat liver microsomes. In kind it is in vitro ADME. The conditions noted are these: for half-life at 5 μM / CLint scaled at 5 μM: pH 7.4; for CLint scaled at 5 μM: rat liver microsomes, in vivo CLint extrapolated. As for the experimental part: Human or rat liver microsomes incubations were conducted in duplicate in polypropylene tubes. The typical incubation mixtures consisted of human or rat liver microsomes (0.5 mg protein/mL), compounds of interest (5 μM) and NADPH (1.0 mM) in a total volume of 200 μL potassium phosphate buffer (PBS, 100 mM, pH=7.4). Compounds were dissolved in DMSO and diluted with PBS such that the final concentration of DMSO was 0.05%. The enzymatic reactions were commenced with the addition of protein after a 3-min preincubation and incubated in a water bath open to the air at 37° C. Reactions were terminated at various time points (0, 5, 10, 15, 30, 60 min) by adding equal volume of ice-cold acetonitrile. The samples were stored at −80° C. until LC/MS/MS assays.
The concentrations of compounds in the incubation mixtures of human or rat liver microsomes were determined by a LC/MS/MS method. The ranges of the linearity in the concentration range were determined for each tested compounds.
A parallel incubation was performed using denatured microsomes as the negative control, and reactions were terminated at various time points (0, 15, 60 min) after incubation at 37° C.
Dextromethorphan (70 μM) was selected as the positive control, and reactions were terminated at various time points (0, 5, 10, 15, 30, 60 min) after incubation at 37° C. Both positive and negative control samples were included in each assay to ensure the integrity of the microsomal incubation system.
The concentrations of compounds in human or rat liver microsome incubations were plotted as a percentage of the relevant zero time point control for each reaction. The in vivo CLint were extrapolated (ref.: Naritomi Y, Terashita S, Kimura S, Suzuki A, Kagayama A, Sugiyama Y. “Prediction of human hepatic clearance from in vivo animal experiments and in vitro metabolic studies with liver microsomes from animals and humans”, Drug Metabolism and Disposition, 2001, 29, 1316-1324).

[3] abbreviates: rat liver microsomes 0.5 mg protein/mL, compound 5 μM, NADPH, 37° C.

T2 sequence (P48736 whole entry): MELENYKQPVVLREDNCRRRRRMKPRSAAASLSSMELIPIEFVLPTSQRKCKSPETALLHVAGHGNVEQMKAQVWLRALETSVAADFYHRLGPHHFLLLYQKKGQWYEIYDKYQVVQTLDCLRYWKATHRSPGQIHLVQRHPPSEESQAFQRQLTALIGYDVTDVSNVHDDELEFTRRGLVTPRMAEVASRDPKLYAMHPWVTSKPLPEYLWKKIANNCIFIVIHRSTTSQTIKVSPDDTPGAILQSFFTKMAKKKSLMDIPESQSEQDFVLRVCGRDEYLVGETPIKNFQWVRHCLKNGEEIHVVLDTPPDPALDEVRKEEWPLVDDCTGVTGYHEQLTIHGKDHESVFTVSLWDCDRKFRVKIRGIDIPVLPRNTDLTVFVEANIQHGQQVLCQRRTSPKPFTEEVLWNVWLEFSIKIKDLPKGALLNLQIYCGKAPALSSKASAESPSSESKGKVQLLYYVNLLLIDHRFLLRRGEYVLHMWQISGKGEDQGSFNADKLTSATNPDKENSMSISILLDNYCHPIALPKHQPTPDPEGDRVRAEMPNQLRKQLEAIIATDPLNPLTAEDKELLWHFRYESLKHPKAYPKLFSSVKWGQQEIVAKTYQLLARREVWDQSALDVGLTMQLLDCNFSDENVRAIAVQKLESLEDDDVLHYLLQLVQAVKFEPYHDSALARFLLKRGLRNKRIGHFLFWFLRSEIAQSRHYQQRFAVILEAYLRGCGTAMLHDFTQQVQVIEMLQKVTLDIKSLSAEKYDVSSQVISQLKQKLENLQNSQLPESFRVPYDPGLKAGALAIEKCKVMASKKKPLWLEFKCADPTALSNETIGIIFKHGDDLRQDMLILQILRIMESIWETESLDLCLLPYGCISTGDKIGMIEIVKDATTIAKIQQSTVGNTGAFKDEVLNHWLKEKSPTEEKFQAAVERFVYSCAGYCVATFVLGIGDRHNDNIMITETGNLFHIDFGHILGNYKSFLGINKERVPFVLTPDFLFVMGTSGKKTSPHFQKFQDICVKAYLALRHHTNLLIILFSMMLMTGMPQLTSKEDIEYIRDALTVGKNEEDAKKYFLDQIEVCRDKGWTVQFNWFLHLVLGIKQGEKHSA

As to `COc1ncc(-c2ccn3ncc(C#CCO)c3n2)cc1NS(=O)(=O)c1ccc(F)cc1F` [Ex. 1, 2,4-difluoro-N-(5-(3-(3-hydroxyprop-1-yn-1-yl)pyrazolo[1,5-a]pyrimidin-5-yl)-2-methoxypyridin-3-yl)benzenesulfonamide], on mTOR (h), the concentration for half-maximal inhibition (IC50) amounted to 9 nM. For the same compound, the IC50 at PI3K (p120γ) (h) amounted to 6 nM. In series [1], this compound had an F of 102.00%, a Cl/F of 2.83 mL/min/kg, an AUC(0-t) of 12100 ng·h/mL and a half-life of 3.93 h. For the same compound, the Vd in series [1] turned out to be 0.32 L/kg. Further, the “TGI % U87MG” value in the series with U87MG glioblastoma cells (1 mg/kg, 12 days) stood at 26%. Besides, in the series on U87MG glioblastoma cells (3 mg/kg, 12 days), the “TGI % U87MG” value was determined as 37%. The “TGI % U87MG” value with U87MG glioblastoma cells (10 mg/kg, 12 days) was 68%. In series [2] (setting [3]), this compound gave a half-life at 5 μM of 2.92 h. The intrinsic clearance (CLint scaled) at 5 μM in series [2] was 14.2 mL/min/kg.

As to `COc1ncc(-c2ccn3ncc(C#N)c3n2)cc1NS(=O)(=O)c1ccc(F)cc1F` [Ex. 2, N-(5-(3-cyanopyrazolo[1,5-a]pyrimidin-5-yl)-2-methoxypyridin-3-yl)-2,4-difluorobenzenesulfonamide], the half-maximal inhibitory concentration (IC50) against mTOR (h) is 4 nM. Further, the IC50 at PI3K (p120γ) (h) turned out to be 5 nM. In series [1], this compound gave an F of 69.48%, a Cl/F of 4.33 mL/min/kg, an exposure AUC(0-t) of 7720 ng·h/mL and a half-life of 3.7 h. Moreover, the Vd in series [1] amounted to 0.8 L/kg. Besides, in the series with U87MG glioblastoma cells (1 mg/kg, 12 days), the “TGI % U87MG” value amounted to 59%. Besides, the “TGI % U87MG” value with U87MG glioblastoma cells (3 mg/kg, 12 days) is 76%. For the same compound, the T1/2 entry in series [2] (setting [3]) is given as “∞”.

`COc1ncc(-c2ccn3ncc(C#N)c3c2)cc1NS(=O)(=O)c1ccc(F)cc1F` [Ex. 3, N-(5-(3-cyanopyrazolo[1,5-a]pyridin-5-yl)-2-methoxypyridin-3-yl)-2,4-difluorobenzenesulfonamide]: the IC50 on mTOR (h) came to 4 nM. In addition, the 50% inhibitory concentration (IC50) at PI3K (p120γ) (h) worked out at 6 nM. In series [1], the F amounted to 94.75%, the Cl/F is 4.83 mL/min/kg, the AUC(0-t) amounted to 7070 ng·h/mL and the half-life was 2.77 h. In series [1], the Vd was determined as 0.85 L/kg. In the series with U87MG glioblastoma cells (0.3 mg/kg, 13 days), the “TGI % U87MG” value came to 26%. Besides, in the series on U87MG glioblastoma cells (1 mg/kg, 13 days), the “TGI % U87MG” value was found to be 70%. Moreover, the “TGI % U87MG” value with U87MG glioblastoma cells (3 mg/kg, 13 days) is 95%. This compound showed a half-life at 5 μM in series [2] (setting [3]) of 9.59 h. Also, the CLint scaled at 5 μM in series [2] was 4.32 mL/min/kg.

At mTOR (h), `COc1ncc(-c2ccn3ncc(C#CCO)c3c2)cc1NS(=O)(=O)c1ccc(F)cc1F` [Ex. 4, 2,4-difluoro-N-(5-(3-(3-hydroxyprop-1-yn-1-yl)pyrazolo[1,5-a]pyridin-5-yl)-2-methoxypyridin-3-yl)benzenesulfonamide] showed an IC50 of 4 nM. For the same compound, the concentration for half-maximal inhibition (IC50) at PI3K (p120γ) (h) came to 15 nM. Besides, in series [1], the F was found to be 91.75%, the Cl/F turned out to be 4.67 mL/min/kg, the exposure AUC(0-t) is 7350 ng·h/mL and the half-life is 1.93 h. In series [1], the Vd stood at 0.48 L/kg. Besides, the “TGI % U87MG” value in the series on U87MG glioblastoma cells (1 mg/kg, 13 days) was 32%. In addition, the “TGI % U87MG” value with U87MG glioblastoma cells (3 mg/kg, 13 days) came out at 53%. The “TGI % U87MG” value with U87MG glioblastoma cells (10 mg/kg, 13 days) was determined as 89%. The same compound gave a half-life at 5 μM in series [2] (setting [3]) of 2.56 h. Besides, in series [2], the CLint scaled at 5 μM is 16.2 mL/min/kg.

Broadly, the IC50 is the point on the concentration scale where inhibition reaches its midpoint. For orientation: AUC(0-t) means exposure summed from dosing to a finite time, without extrapolation to infinity. Higher therefore signals high exposure. In general, half-life refers to the time in which the quantity being followed falls by half. A lower half-life goes with rapid decline. The term CLint scaled denotes the capacity of the preparation to metabolise the compound, expressed as a volume cleared per time.
